For assay [1], the system named is SNF3-PDO. Briefly: PDO drug response testing with CDK4/6 inhibitor and PARP inhibitor (CellTiter-Glo 3D cell survival assay). In kind it is cell-based, human. The conditions noted are these: for growth ability of SNF3-PDO: single drug; for PDO growth ability: SNF3 subtype and the non-SNF3 subtype (legend of FIGs. 31 and 32). On the procedure:
(§1) Briefly, the fresh breast cancer tissue is cut into small pieces using a sterile surgical knife. The tissue was digested and resuspended in 10 mL of TAC buffer, incubated for 3 minutes to remove red blood cells, and passed through a […] cell strainer (Corning). For passaging, 5 ml of harvesting solution (Trevigen, 3700-100-01) was used to digest the basement membrane extract (BME), which was incubated on ice for 1 hour. Subsequently, the organoids were centrifuged at 350 g for 5 minutes, washed in digestion buffer, and centrifuged. Next, 3 mL of TrypLE Express (Invitrogen) was added, and the organoids were incubated at room temperature for 3 minutes and then mechanically dissociated into small cell clusters using a pipette. The organoids were passaged every 2-3 weeks at a dilution ratio of 1:2-3.
(§2) Drug response testing of triple-negative breast cancer (TNBC) organoids was conducted according to the method of the published paper (Xiao Y, Ma D, Yang YS, Yang F, Ding JH, Gong Y, et al. Comprehensive metabolomics expands precision medicine for triple-negative breast cancer. CELL RES. 2022;32(5):477-90 doi 10.1038/s41422-022-00614-0.). Organoids without undergoing organoid drug treatment were harvested in good condition and digested into single cells. 25 microliters of organoid suspension was added to black cell-repellent surface of a 384-well plate with transparent bottoms (Greiner 781976-SIN) at 1 × 10^3 to 3 × 10^3 cells per well, and cultured for an additional 5-6 days prior to drug treatment. Organoids were co-cultured with the drug for 1 week and then tested for survival. According to the manufacturer's instructions, organoid cell survival rate was assessed by the CellTiter-Glo 3D cell survival assay (Promega, G9683).
In order to gain an in-depth understanding of the biological characteristics of the SNF3 subtype, low-concentration 4-hydroxytamoxifen was used to induce PDO over an extended period to establish a model for studying acquired resistance to endocrine therapy (Xi Jin, Yi-Fan Zhou, Ding Ma, Shen Zhao, Cai-Jin Lin, Yi Xiao, et al. Integrative Molecular Classification of HR+/HER2- Breast Cancer Guides Precision Treatment. Nature Genetics under minor revision. 2023.02.26.).
In view of the high enrichment of SNF3 tumors in homologous recombination deficiency score, chromosomal instability, and cell cycle activity, the response of SNF3 PDOs to CDK4/6 inhibitors and PARP inhibitors was tested. […] In addition, regardless of BRCA mutation, the homologous recombination deficiency score of SNF3 tumors was much higher (FIG. 35). The above results indicated the therapeutic susceptibility of the SNF3 subtype to CDK4/6 inhibitors and PARP inhibitors; therefore, CDK4/6 inhibitors and PARP inhibitors or combinations thereof may be potential accurate treatment strategies for SNF3 tumors.

Assay [2] concerns four subtypes of PDOs. Nature of the assay: PDO drug response testing of traditional endocrine therapies (CellTiter-Glo 3D cell survival assay). The following applies: compared among four subtypes of PDOs (n = 88). The format is cell-based, human. On the procedure: as §1, §2
The sensitivity of four subtypes of PDOs (n = 88) to three traditional endocrine therapies (estrogen deprivation, 4-hydroxytamoxifen (4OHtam), and fulvestrant) was compared on a PDO drug testing platform. […] In order to investigate the potential mechanism of SNF1 tumor sensitivity to endocrine therapy, the endocrine therapy-related pathways in the multi-omics data from Fudan University Shanghai Cancer Center were analyzed. […] In addition, the expression of endocrine therapy resistance pathways was also compared among the four subtypes.
(Cellular ATP, detected with luciferase, serves as a proxy for viable cell number.)

Assay [3] relates to advanced HR+/HER2- breast cancer. Nature of the assay: Real-world retrospective clinical cohort of advanced HR+/HER2- breast cancer. The following applies: SNF3 and SNF4 subtypes; advanced cohort of FUSCC, n = 277; p = 0.033. In kind it is in vivo, human. From the text: Frequency tables and summary statistics were used to characterize data distribution. Wilcoxon test and Kruskal-Wallis test were used to compare continuous variables and categorical variables, and Pearson chi-square test and Fisher's exact test were used to compare unordered categorical variables. Survival curves were established using the Kaplan-Meier product-limit method and compared with the log-rank test to obtain RFS and PFS. RFS was defined as the time from diagnosis to the first recurrence or diagnosis of contralateral breast cancer. PFS was defined as the interval from the start of treatment to disease progression or death due to any cause (whichever occurs first), or to the time of the last PFS assessment for patients with progression-free survival. Univariate and multivariate Cox proportional hazards regression models were constructed to evaluate the hazard ratio (HR) and the corresponding 95% confidence interval (CI). All analyses were performed using R software package version 3.6.1 (https://cran.r-project.org/).
For deeper insights into the landscape of metastatic HR+/HER2- breast cancer, we constructed a real-world cohort of patients with advanced HR+/HER2- breast cancer from FUSCC and invited other three centers to participate in our real-world study. […] Their tumor progression were evaluated according to RECIST v1.1.

Assay [4] has as its system SNF4 subtype cancer-associated fibroblasts (CAF). Briefly: Efficacy on patient-derived cancer cells co-cultured with fibroblasts. In kind it is cell-based, human. The conditions noted are these: sorafenib (1 µM). On the procedure: (F-G) The efficacy of sorafenib (1 µM) on patient-derived cancer cells co-cultured with fibroblasts. Scale bar: 100 micrometers. Cancer cells are treated with sorafenib three times. One representative experiment is shown. The experiment is repeated three times, and the results are similar.

Assay [5] deals with signaling pathway activated by PDGF in SNF4 tumor. Briefly: PDGF-activated signaling pathway changes after tyrosine kinase inhibitor treatment. The format is cell-based, human.
Assay [6] addresses SNF4 tumors. Briefly: PDO drug sensitivity testing of tyrosine kinase inhibitors. In kind it is cell-based, human. The conditions noted are these: for IC50: SNF4 tumors compared with other subtypes, PDO. On the procedure: as §1, §2
Next, based on the identified key receptors, 12 tyrosine kinase inhibitors were selected to construct a "tyrosine kinase inhibitor combination," including tyrosine kinase inhibitors targeting the ErbB family (afatinib, lapatinib, pyrotinib), the PDGFR family (axitinib, sunitinib), the VEGFR family (foretinib, apatinib), the TAM receptor (sitravatinib), as well as some multi-target tyrosine kinase inhibitors (sorafenib, vandetanib, regorafenib, famitinib). The combination is used for PDO drug sensitivity testing to verify the tyrosine kinase inhibitor most sensitive to SNF4 tumors (FIG. 38). […] Combining the drug sensitivity results of the above 12 tyrosine kinase inhibitors and the targets of the above four drugs, VEGFR and PDGFR signaling were preliminarily identified as potential therapeutic vulnerabilities of SNF4 tumors.

For 4-hydroxytamoxifen, the “sensitivity to endocrine therapy” value in assay [1] (SNF3-PDO after long-term induction with low-concentration 4-hydroxytamoxifen, unlike other subtypes) is recorded as “less sensitive to endocrine therapy”. Also, the survival rate result in assay [2] (SNF1-PDO) is listed as “lowest survival rate”; in assay [2] (SNF4-PDO), “relatively higher survival rate”.

As for `C[C@]12CC[C@@H]3c4ccc(O)cc4C[C@@H](CCCCCCCCC[S+]([O-])CCCC(F)(F)C(F)(F)F)[C@H]3[C@@H]1CC[C@@H]2O` (some centres unmarked) [fulvestrant], in assay [3], the “progression-free survival (PFS)” value is “worse progression-free survival”. The figures for the survival rate entry in assay [2] (SNF1-PDO) and in assay [2] (SNF4-PDO) were “lowest survival rate” and “relatively higher survival rate”, respectively.

On to `CNC(=O)c1cc(Oc2ccc(NC(=O)Nc3ccc(Cl)c(C(F)(F)F)c3)cc2)ccn1` [sorafenib], for which the “sensitivity of SNF4 subtype cancer-associated fibroblasts (CAF)” value in assay [4] is on record as “sensitive”. Moreover, the “signaling pathway activated by PDGF” value in assay [5] is “significantly downregulated”. For the same compound, in assay [6], the IC50 result is “lower than that of other subtypes”.

Take `O=C(c1cc(Cc2n[nH]c(=O)c3ccccc23)ccc1F)N1CCN(C(=O)C2CC2)CC1` [olaparib]: in assay [1], the “growth ability of SNF3-PDO” value is on record as “significantly inhibited” and the PDO growth ability result is given as “significantly inhibited”.

With `CNC(=O)c1cc(Oc2ccc(NC(=O)Nc3ccc(Cl)c(C(F)(F)F)c3)c(F)c2)ccn1` [regorafenib], the IC50 entry in assay [6] is recorded as “lower than that of other subtypes”. Also, in assay [6] (after treatment, Wilcoxon test), the “cell viability of SNF4 tumors” value was “significantly decreased”.

For `CCN1CCN(Cc2ccc(Nc3ncc(F)c(-c4cc(F)c5nc(C)n(C(C)C)c5c4)n3)nc2)CC1` [abemaciclib, N-[5-[(4-ethyl-1-piperazinyl)methyl]-2-pyridinyl]-5-fluoro-4-[4-fluoro-2-methyl-1-(1-methylethyl)-1H-benzimidazol-6-yl]-2-pyrimidinamine], in assay [1], the “growth ability of SNF3-PDO” value is on record as “significantly inhibited” and the PDO growth ability entry is listed as “significantly inhibited”.

Take `CCN(CC)CCN1CCc2[nH]c(/C=C3\C(=O)Nc4ccc(F)cc43)c(C)c2C1=O` [famitinib]: the “signaling pathway activated by PDGF” value in assay [5] was “significantly downregulated”. For the same compound, in assay [6], the IC50 result is listed as “lower than that of other subtypes”.

These data come from patent EP4730355A1, “TYPING SYSTEM AND METHOD FOR HR-POSITIVE/HER2-NEGATIVE BREAST CANCER” (Lumitype Medical (Huzhou) Co., Ltd., priority 2023, dated 2024).
